Broadly, the IC50 is the midpoint of a concentration-inhibition curve.

Molecules are shown by their SMILES.

Chain of phosphorylated active hERK2 enzyme (P28482 whole entry): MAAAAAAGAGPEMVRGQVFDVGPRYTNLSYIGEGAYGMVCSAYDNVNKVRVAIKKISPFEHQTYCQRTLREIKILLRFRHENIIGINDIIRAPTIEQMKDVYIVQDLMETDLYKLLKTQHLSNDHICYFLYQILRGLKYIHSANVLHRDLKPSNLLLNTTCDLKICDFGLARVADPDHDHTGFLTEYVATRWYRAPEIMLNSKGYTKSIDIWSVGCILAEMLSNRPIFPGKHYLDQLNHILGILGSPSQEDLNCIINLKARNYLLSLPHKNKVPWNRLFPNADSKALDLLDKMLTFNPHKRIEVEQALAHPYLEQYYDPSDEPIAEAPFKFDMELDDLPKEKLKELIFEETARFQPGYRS

The first test addresses phosphorylated active hERK2 enzyme (Homo sapiens (Human), UniProt P28482). As to conditions: ERK2 IC50, IMAP-FP assay; 0.5 nM hERK2, 30 μM ATP; 10 point titration, 3 μM starting concentration.
Procedure: Active Human ERK2 (hERK2) Activity Assay:
Activated ERK2 activity was determined in an IMAP-FP assay (Molecular Devices). […] The final reaction in each well of 25 μL consists of 0.5 nM hERK2, 900 nM unlabeled peptide, 80 nM labeled-peptide, and 30 μM ATP. Phosphorylation reactions were allowed to proceed for 60 minutes and were immediately quenched by the addition of 60 μL IMAP detection beads (1:1000 dilutions) in IMAP binding buffer (Molecular Devices) with 24 mM NaCl. Plates were read on EnVision reader after 60 minutes binding equilibration using Fluorescence Polarization protocol (Perkin Elmer).
As to `Cc1cc(-n2ncc3cc(NC(=O)N[C@H]4CCCC[C@@H]4c4ccccc4)ncc32)ccn1` (racemic) [Example 151, Racemic trans 1-[1-(2-methylpyridin-4-yl)-1H-pyrazolo[3,4-c]pyridin-5-yl]-3-[(1S,2R) and (1R,2S)-2-phenylcyclohexyl]urea], the IC50 is 3.65 nM.

Staying with this test, now noted: read-out: ERK2 IC50; IMAP-FP assay; 0.5 nM hERK2, 30 μM ATP; 10 point titration, 3 μM starting concentration.
On to `COC[C@@H](NC(=O)Nc1cc2cnn(C3CCNC(C)C3)c2cn1)c1ccccc1` (stereo partly drawn) [Example 239, 1-[(1S)-2-methoxy-1-phenylethyl]-3-[1-(2-methylpiperidin-4-yl)-1H-pyrazolo[3,4-c]pyridin-5-yl]urea], for which the IC50 is 2180 nM. With `COCCn1ncc2cc(NC(=O)N[C@H](C)c3ccccc3)nc(CO)c21` [Example 312, 1-[7-(hydroxymethyl)-1-(2-methoxyethyl)-1H-pyrazolo[3,4-c]pyridin-5-yl]-3-[(1R)-1-phenylethyl]urea], the IC50 was determined as 296 nM.

In the case of `CC(C)(C)OC(=O)N1CCc2cnc(-n3ncc4cc(NC(=O)N[C@@H](c5ccc(F)cc5)C(C)(C)O)ncc43)nc2C1` [Example 234, tert-butyl 2-[5-({[(1S)-1-(4-fluorophenyl)-2-hydroxy-2-methylpropyl]carbamoyl}amino)-1H-pyrazolo[3,4-c]pyridin-1-yl]-5,8-dihydropyrido[3,4-d]pyrimidine-7(6H)-carboxylate], the IC50 amounted to 1810 nM. Still for that read-out and setting: as for `Cc1cc(-n2ncc3cc(NC(=O)N[C@@H]4[C@@H](C)N(C)C[C@H]4c4ccccc4C)ncc32)ccn1` [Example 104, 1-[(2R,3S,4R)-1,2-dimethyl-4-(2-methyl-phenyl)pyrrolidin-3-yl]-3-[1-(2-methylpyridin-4-yl)-1H-pyrazolo[3,4-c]pyridin-5-yl]urea], the figure is 35.5 nM. On the same count and under the same terms, to `COC[C@@H](NC(=O)Nc1cc2cnn(C3CCOCC3)c2cn1)c1ccccc1` [Example 259, (S)-1-(2-methoxy-1-phenylethyl)-3-(1-(tetrahydro-2H-pyran-4-yl)-1H-pyrazolo[3,4-c]pyridin-5-yl)urea] belongs 196 nM. The same measure, in the same setting: as for `Cc1cc(-n2ncc3cc(NC(=O)N[C@H]4CN(C)C[C@@H]4C)ncc32)ccn1` [Example 25, 1-[(3R,4S)-1,4-dimethylpyrrolidin-3-yl]-3-[1-(2-methylpyridin-4-yl)-1H-pyrazolo[3,4-c]pyridin-5-yl]urea], the figure is 66.4 nM. As to `Cc1ccc(-n2ncc3cc(NC(=O)N[C@H](C)c4ccccc4)ncc32)nn1` [Example 213, 1-[1-(6-methylpyridazin-3-yl)-1H-pyrazolo[3,4-c]pyridin-5-yl]-3-[(1R)-1-phenylethyl]urea], the IC50 came out at 208 nM.

Turning to `O=C(NCc1ccc(F)cc1)Nc1cc2cnn(-c3ccc(F)cc3)c2cn1` [Example 1, 1-(4-fluorobenzyl)-3-(1-(4-fluorophenyl)-1H-pyrazolo[3,4-c]pyridin-5-yl)urea], the IC50 was 26 nM. As to `C[C@@H](NC(=O)Nc1cc2cn[nH]c2c(CO)n1)c1ccccc1` [Example 229, (R)-1-(7-(hydroxymethyl)-1H-pyrazolo[3,4-c]pyridin-5-yl)-3-(1-phenylethyl)urea], the IC50 was 41 nM.

As for `Cc1cc(-n2ncc3cc(NC(=O)N[C@@H](c4ccc(F)cc4)C(C)(C)O)ncc32)ccn1` [Example 294, 1-[(1S)-1-(4-fluorophenyl)-2-hydroxy-2-methylpropyl]-3-[1-(2-methylpyridin-4-yl)-1H-pyrazolo[3,4-c]pyridin-5-yl]urea], the IC50 was determined as 1.08 nM. Still for that read-out and setting: as for `Cc1cc(-n2ncc3cc(NC(=O)NC4CC(=O)N(C)C4)ncc32)ccn1` (stereo not drawn) [Example 22, 1-(1-methyl-5-oxopyrrolidin-3-yl)-3-[1-(2-methylpyridin-4-yl)-1H-pyrazolo[3,4-c]pyridin-5-yl)urea], the figure is 181 nM.

For the compound `Cc1cc(-n2ncc3cc(NC(=O)N[C@H]4CN(C)C[C@@H]4c4ccc(C5CC5)s4)ncc32)ccn1` [Example 164, 1-[(3R,4S)-4-(5-cyclopropylthiophen-2-yl)-1-methylpyrrolidin-3-yl]-3-[1-(2-methylpyridin-4-yl)-1H-pyrazolo[3,4-c]pyridin-5-yl]urea], the concentration for half-maximal inhibition (IC50) came to 1.13 nM.

As to `Cc1cc(-n2ncc3cc(NC(=O)N[C@H]4CCN(C)C4)ncc32)ccn1` [Example 21, 1-[1-(2-methylpyridin-4-yl)-1H-pyrazolo[3,4-c]pyridin-5-yl]-3-[(3S)-1-methylpyrrolidin-3-yl)urea], the IC50 is 767 nM. `C[C@@H](NC(=O)Nc1cc2cnn(-c3ccc(F)cc3)c2c(CNCCN(C)C)n1)c1ccccc1` [Example 320, 1-[7-({[2-(dimethylamino)ethyl]amino}methyl)-1-(4-fluorophenyl)-1H-pyrazolo[3,4-c]pyridin-5-yl]-3-[(1R)-1-phenylethyl]urea]: the IC50 was 1240 nM. Still for that read-out and setting: to `CCCN1CC[C@@H](NC(=O)Nc2cc3cnn(-c4ccnc(C)c4)c3cn2)C1` [Example 29, 1-[1-(2-methylpyridin-4-yl)-1H-pyrazolo[3,4-c]pyridin-5-yl]-3-[(3R)-1-propylpyrrolidin-3-yl]urea] belongs 453 nM; to `O=C(Nc1cc2cnn(-c3ccncc3)c2cn1)NC1CCCc2ccccc21` (stereo not drawn) [Example 10, 1-(1-pyridin-4-yl-1H-pyrazolo[3,4-c]pyridin-5-yl)-3-(1,2,3,4-tetrahydronaphthalen-1-yl)urea], 34.7 nM; to `CCN1C[C@@H](NC(=O)Nc2cc3cnn(-c4ccnc(C)c4)c3cn2)[C@H](c2ccccc2)C1` [Example 200, 1-[(3S,4R)-1-ethyl-4-phenylpyrrolidin-3-yl]-3-[1-(2-methylpyridin-4-yl)-1H-pyrazolo[3,4-c]pyridin-5-yl]urea], 20.6 nM. On to `Cc1cc(-n2ncc3cc(NC(=O)NC4CN(C)CC4c4ccccc4)ncc32)ccn1` (stereo not drawn) [Example 57, 1-(1-methyl-4-phenylpyrrolidin-3-yl)-3-[1-(2-methylpyridin-4-yl)-1H-pyrazolo[3,4-c]pyridin-5-yl]urea], for which the IC50 was 0.823 nM. `Cc1cc(-n2ncc3cc(NC(=O)N[C@H]4CNC[C@@H]4Oc4ccc(F)cc4)ncc32)ccn1` [Example 284, 1-[(3S,4S)-4-(4-fluorophenoxy)pyrrolidin-3-yl]-3-[1-(2-methylpyridin-4-yl)-1H-pyrazolo[3,4-c]pyridin-5-yl]urea]: the IC50 turned out to be 24.1 nM. On the same count and under the same terms, as for `Cc1cc(-n2ncc3cc(NC(=O)N[C@H](CN)c4ccccc4)ncc32)ccn1` [Example 187, 1-[(1S)-2-amino-1-phenylethyl]-3-[1-(2-methylpyridin-4-yl)-1H-pyrazolo[3,4-c]pyridin-5-yl]urea], the figure is 0.685 nM. The same measure, in the same setting: to `Cc1cc(-n2ncc3cc(NC(=O)NC(CCN(C)C)c4ccccn4)ncc32)ccn1` (stereo not drawn) [Example 72, 1-[3-(dimethylamino)-1-pyridin-2-ylpropyl]-3-[1-(2-methylpyridin-4-yl)-1H-pyrazolo[3,4-c]pyridin-5-yl]urea] belongs 10.2 nM. With `Cc1cc(-n2ncc3cc(NC(=O)NCc4cn(C)cn4)ncc32)ccn1` [Example 108, 1-[(1-methyl-1H-imidazol-4-yl)methyl]-3-[1-(2-methylpyridin-4-yl)-1H-pyrazolo[3,4-c]pyridin-5-yl)urea], the IC50 was found to be 284 nM. In the case of `CCN1C[C@H](NC(=O)Nc2cc3cnn(-c4ccnc(C)c4)c3cn2)[C@@H](c2ccccc2)C1` [Example 199, 1-[(3R,4S)-1-ethyl-4-phenylpyrrolidin-3-yl]-3-[1-(2-methylpyridin-4-yl)-1H-pyrazolo[3,4-c]pyridin-5-yl]urea], the IC50 is 0.718 nM.

Consider `Cc1cc(-n2ncc3cc(NC(=O)N[C@H](C)c4ccccc4)nc(COC4COC4)c32)ccn1` [Example 250, 1-{1-(2-methylpyridin-4-yl)-7-[(oxetan-3-yloxy)methyl]-1H-pyrazolo[3,4-c]pyridin-5-yl}-3-[(1R)-1-phenylethyl]urea], for which the IC50 was found to be 25 nM. On the same count and under the same terms, to `C[C@@H](NC(=O)Nc1cc2cnn(C)c2cn1)c1ccccc1` [Example 225, (R)-1-(1-methyl-1H-pyrazolo[3,4-c]pyridin-5-yl)-3-(1-phenylethyl)urea] belongs 920 nM; to `Cc1cc(-n2ncc3cc(NC(=O)N[C@@H]4C[C@H](C)N(C)C4)ncc32)ccn1` [Example 26, 1-[(3R,5S)-1,5-dimethylpyrrolidin-3-yl]-3-[1-(2-methylpyridin-4-yl)-1H-pyrazolo[3,4-c]pyridin-5-yl]urea], 275 nM; to `Cn1cc2cc(-n3ncc4cc(NC(=O)NC(c5ccccc5)c5cnco5)ncc43)ccc2n1` (stereo not drawn) [Example 35, 1-[1-(2-methyl-2H-indazol-5-yl)-1H-pyrazolo[3,4-c]pyridin-5-yl]-3-[1,3 oxazol-5-yl(phenyl)methyl]urea], 1.56 nM. The same measure, in the same setting: as for `C[C@@H](NC(=O)Nc1cc2cnn(C3CCOCC3)c2cn1)c1ccccc1` [Example 238, 1-[(1R)-1-phenylethyl]-3-[1-(tetrahydro-2H-pyran-4-yl)-1H-pyrazolo[3,4-c]pyridin-5-yl]urea], the figure is 147 nM. Turning to `O=C(NCCc1ccccc1)Nc1cc2cnn(-c3ccncc3)c2cn1` [Example 8, 1-(2-phenylethyl)-3-(1-pyridin-4-yl-1H-pyrazolo[3,4-c]pyridin-5-yl)urea], the half-inhibitory concentration (IC50) is 16.2 nM.

For the compound `C[C@@H](NC(=O)Nc1cc2cnn(-c3cnn(C)c3)c2cn1)c1ccc(F)c(Cl)c1` [Example 205, (R)-1-(1-(3-chloro-4-fluorophenyl)ethyl)-3-(1-(1-methyl-1H-pyrazol-4-yl)-1H-pyrazolo[3,4-c]pyridin-5-yl)urea], the IC50 is 12.1 nM. Still for that read-out and setting: as for `CO[C@@H]1CN(C)C[C@H]1NC(=O)Nc1cc2cnn(-c3ccnc(C)c3)c2cn1` [Example 194, 1-[(3R,4R)-4-methoxy-1-methylpyrrolidin-3-yl]-3-[1-(2-methylpyridin-4-yl)-1H-pyrazolo[3,4-c]pyridin-5-yl]urea], the figure is 47.7 nM; as for `Cc1cc(-n2ncc3cc(NC(=O)NCC(c4ccccc4)N4CCC(F)(F)CC4)ncc32)ccn1` (stereo not drawn) [Example 55, 1-[2-(4,4-difluoropiperidin-1-yl)-2-phenylethyl]-3-[1-(2-methylpyridin-4-yl)-1H-pyrazolo[3,4-c]pyridin-5-yl]urea], 85.1 nM.

The record behind these values is patent publication US9884048B2, “ERK inhibitors” (Merck Sharp & Dohme Corp., priority 2014, dated 2018).
